Test [1] deals with DNA (cytosine-5)-methyltransferase 1 (Homo sapiens, UniProt P26358). Put plainly: inhibition of DNA methylation by DNMT1 – biochemical, fluorescent molecular beacon, confirmation (AID 602386). In kind it is functional.
Test [2] has as its target Dual specificity protein phosphatase 3 (Homo sapiens, UniProt P51452). Nature of the test: SAR VHR1 Fluorescent Assay for In Vitro dose response studies Set 2. [Related pubchem assays (depositor defined):AID1654, AID1661, AID1878]. In kind it is functional.
Test [3] in a line: A cytotoxicity screen of small molecule inhibitors of the PhoP region in Salmonella typhi identified in the primary screen. [Related pubchem assays: 1850, 1864, 1985 ]. In kind it is functional.
Test [4] has as its system BJ. Put plainly: cells. In kind it is functional, cell-based. The note with it: Homo sapiens.
For test [5], the system named is BJ. Put plainly: BJ-TERT-LT-ST fibroblast viability loss – cell-based, RAS-independent, luminescence, dose response (AID 1935).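 Note: BJ fibroblasts immortalized with TERT plus LT and ST oncogenes.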 The settings on record: Homo sapiens. In kind it is functional.
The nature of test [6]: viability loss in Vero cells – cytotoxicity control for Vif-APOBEC3G degradation inhibitor project, dose response (AID 1117358). In kind it is functional. The note with it: Vero.
The target of the next test is T1, Aminopeptidase N (Plasmodium falciparum FcB1/Columbia, UniProt O96935).
T1 sequence (O96935 whole entry): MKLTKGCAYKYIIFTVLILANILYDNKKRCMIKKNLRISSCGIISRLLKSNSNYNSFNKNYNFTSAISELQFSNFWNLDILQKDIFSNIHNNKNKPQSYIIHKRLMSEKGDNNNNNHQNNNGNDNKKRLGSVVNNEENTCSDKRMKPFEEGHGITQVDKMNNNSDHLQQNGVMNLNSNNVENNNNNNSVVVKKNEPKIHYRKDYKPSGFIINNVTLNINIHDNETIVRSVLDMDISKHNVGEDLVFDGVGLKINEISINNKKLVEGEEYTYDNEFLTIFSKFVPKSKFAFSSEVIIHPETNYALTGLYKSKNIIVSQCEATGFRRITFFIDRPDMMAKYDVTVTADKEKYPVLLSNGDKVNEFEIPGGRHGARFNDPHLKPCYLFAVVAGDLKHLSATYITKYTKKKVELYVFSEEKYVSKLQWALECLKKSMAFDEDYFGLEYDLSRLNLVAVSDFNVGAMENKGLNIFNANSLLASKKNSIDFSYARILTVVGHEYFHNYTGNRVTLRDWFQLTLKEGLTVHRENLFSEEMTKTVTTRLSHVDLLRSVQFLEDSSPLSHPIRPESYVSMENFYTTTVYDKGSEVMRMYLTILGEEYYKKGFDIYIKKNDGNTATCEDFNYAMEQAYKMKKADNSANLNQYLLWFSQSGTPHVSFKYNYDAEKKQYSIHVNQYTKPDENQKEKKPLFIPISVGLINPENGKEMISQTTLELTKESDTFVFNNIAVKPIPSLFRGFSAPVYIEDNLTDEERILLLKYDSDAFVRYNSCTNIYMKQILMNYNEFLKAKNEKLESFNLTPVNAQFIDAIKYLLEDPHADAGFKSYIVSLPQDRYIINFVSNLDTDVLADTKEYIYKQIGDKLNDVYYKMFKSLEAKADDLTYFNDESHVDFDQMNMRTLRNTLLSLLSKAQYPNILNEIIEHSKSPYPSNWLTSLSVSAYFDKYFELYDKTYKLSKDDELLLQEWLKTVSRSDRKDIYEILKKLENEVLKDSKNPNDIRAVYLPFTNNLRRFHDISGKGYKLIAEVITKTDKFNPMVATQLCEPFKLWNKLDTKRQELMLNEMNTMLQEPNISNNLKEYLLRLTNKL
Nature of the test: malaria alanyl aminopeptidase activity blockers – biochemical, fluorogenic H-Leu-NHMec substrate, 1536-well (AID 1445). The arrangement: species or system Plasmodium falciparum 3D7, 3D7.

Test [7] has as its target Intestinal-type alkaline phosphatase (Homo sapiens, UniProt P09923). Nature of the test: activation of human intestinal alkaline phosphatase – biochemical, dose response (AID 488873). In kind it is functional.
Test [8] has as its target Induced myeloid leukemia cell differentiation protein Mcl-1 (Homo sapiens, UniProt Q07820). In kind it is functional.
The target of test [9] is Glutathione-S-transferase (Schistosoma japonicum, UniProt Q26513). Nature of the test: GST-antibody interaction or FRET quenching – biochemical, TR-FRET, artefact control for Vif-APOBEC3G degradation inhibitor project, dose response (AID 1117362). In kind it is functional.
Glutathione-S-transferase, sequence (Q26513 whole entry): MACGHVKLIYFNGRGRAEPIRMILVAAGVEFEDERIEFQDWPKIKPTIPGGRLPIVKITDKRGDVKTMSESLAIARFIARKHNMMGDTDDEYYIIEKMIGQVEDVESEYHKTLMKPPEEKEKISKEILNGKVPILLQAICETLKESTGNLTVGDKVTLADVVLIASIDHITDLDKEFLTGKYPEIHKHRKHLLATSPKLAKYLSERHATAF
A short description of test [10]: bead-based luminescence quenchers, dual-tagged ARNT – biochemical, AlphaScreen, cherry-pick, artefact control for ARNT-TACC3 interaction inhibitor project, dose response (AID 651705).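 Note: AlphaScreen bead proximity signal that flags compounds interfering with the detection technology; potency reflects signal decrease which marks the compound as an assay artifact.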 In kind it is functional. In general terms: Bead proximity is the source of the signal in Alpha formats.
Test [11] in a line: mitochondrial function rescue without frataxin homolog – Friedreich's ataxia, plus single-dose screen, dose response (AID 1465).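 Note: yeast depleted of Yfh1p frataxin homolog grown on glycerol needing respiration; WST-1 tetrazolium dye reduction as measure of cellular dehydrogenase metabolic activity.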 In kind it is functional.
A short description of test [12]: MIN6 cell viability loss – mouse insulinoma, cytotoxicity control, dose response (AID 2122).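 Note: confirmatory high-throughput counterscreen run to flag cytotoxic compounds; mouse MIN-6 beta cells carrying an insulin promoter eGFP reporter.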 In kind it is functional.
Test [13] concerns the target T2, Sphingosine 1-phosphate receptor 4 (Homo sapiens, UniProt O95977).
T2 sequence (O95977 whole entry): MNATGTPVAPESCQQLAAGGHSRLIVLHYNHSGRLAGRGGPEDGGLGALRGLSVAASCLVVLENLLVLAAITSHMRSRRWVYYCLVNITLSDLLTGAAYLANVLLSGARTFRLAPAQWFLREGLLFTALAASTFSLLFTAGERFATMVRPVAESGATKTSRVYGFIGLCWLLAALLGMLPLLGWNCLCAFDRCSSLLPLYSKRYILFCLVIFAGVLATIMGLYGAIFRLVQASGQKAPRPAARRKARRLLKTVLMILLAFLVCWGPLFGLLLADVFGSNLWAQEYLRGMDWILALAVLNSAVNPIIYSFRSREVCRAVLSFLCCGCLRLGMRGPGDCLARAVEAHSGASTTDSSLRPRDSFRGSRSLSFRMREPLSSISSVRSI
Put plainly: Fluorescence dose response cell-based high throughput screening assay for antagonists of the Sphingosine 1-Phosphate Receptor 4 (S1P4). [Related pubchem assays: 1524 (Confirmation in triplicates.), 1510 (Primary screen.)]. In kind it is functional.

In another test the target is Nonstructural protein 1 (Influenza A virus, UniProt Q194T2). In kind it is functional, Influenza A virus (A/California/07/2009(H1N1)).
Nonstructural protein 1, sequence (Q194T2 whole entry): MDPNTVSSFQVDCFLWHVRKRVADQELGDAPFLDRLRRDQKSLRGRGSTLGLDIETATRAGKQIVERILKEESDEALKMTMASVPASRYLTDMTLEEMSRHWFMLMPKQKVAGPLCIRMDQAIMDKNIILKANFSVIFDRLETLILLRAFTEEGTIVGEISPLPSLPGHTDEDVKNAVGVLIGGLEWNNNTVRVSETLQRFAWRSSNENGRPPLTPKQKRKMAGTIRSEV
Test [14] can be described thus: Luminescence-based dose response cell-based high throughput screening assay for cytotoxic compounds using the IEC-6 intestinal epithelial cell line. [Related pubchem assays: 1858 (Summary AID.), 1825 (Counterscreen.), 1907 (Confirmation screen.)]. In kind it is functional. In general terms: A counterscreen serves to expose hits that act by an unwanted route or on another target.

The target of test [15] is Heat shock protein HSP 90-alpha (Homo sapiens, UniProt P07900). Put plainly: Luminescence-based dose response biochemical high throughput screening assay for inhibitors of the Heat Shock Protein 90 (HSP90). [Related pubchem assays: 1831 (Summary AID.), 1846 (Confirmation screen.), 1789 (Primary screen.)].
A short description of test [16]: luciferase reporter signal suppression in cells – H4 neuroglioma cells, luminescence, dose response (AID 1990). In kind it is functional, cell-based. Background: A reporter such as luciferase makes a cellular process visible.

Calls of active or inactive are those of the source.

Intestinal-type alkaline phosphatase, sequence (P09923 whole entry): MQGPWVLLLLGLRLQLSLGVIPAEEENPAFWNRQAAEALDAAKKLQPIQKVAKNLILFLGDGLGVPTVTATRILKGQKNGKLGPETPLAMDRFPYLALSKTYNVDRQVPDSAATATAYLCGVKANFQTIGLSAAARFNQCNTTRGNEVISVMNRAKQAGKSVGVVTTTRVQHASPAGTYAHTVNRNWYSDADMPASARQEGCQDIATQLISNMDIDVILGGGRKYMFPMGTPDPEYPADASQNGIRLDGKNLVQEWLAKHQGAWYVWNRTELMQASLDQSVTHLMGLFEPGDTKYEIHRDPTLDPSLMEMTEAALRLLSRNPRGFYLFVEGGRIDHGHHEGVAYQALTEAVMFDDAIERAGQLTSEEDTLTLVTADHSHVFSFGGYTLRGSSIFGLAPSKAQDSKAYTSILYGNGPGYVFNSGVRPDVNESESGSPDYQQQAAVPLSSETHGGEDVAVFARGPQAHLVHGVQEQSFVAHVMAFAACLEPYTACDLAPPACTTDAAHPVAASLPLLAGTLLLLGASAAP
Dual specificity protein phosphatase 3, sequence (P51452 whole entry): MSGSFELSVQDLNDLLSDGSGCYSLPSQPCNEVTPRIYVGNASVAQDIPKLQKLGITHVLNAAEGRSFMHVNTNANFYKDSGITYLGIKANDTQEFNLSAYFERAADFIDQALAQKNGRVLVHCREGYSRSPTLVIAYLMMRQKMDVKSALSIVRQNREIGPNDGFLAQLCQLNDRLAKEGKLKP
Induced myeloid leukemia cell differentiation protein Mcl-1, sequence (Q07820 whole entry): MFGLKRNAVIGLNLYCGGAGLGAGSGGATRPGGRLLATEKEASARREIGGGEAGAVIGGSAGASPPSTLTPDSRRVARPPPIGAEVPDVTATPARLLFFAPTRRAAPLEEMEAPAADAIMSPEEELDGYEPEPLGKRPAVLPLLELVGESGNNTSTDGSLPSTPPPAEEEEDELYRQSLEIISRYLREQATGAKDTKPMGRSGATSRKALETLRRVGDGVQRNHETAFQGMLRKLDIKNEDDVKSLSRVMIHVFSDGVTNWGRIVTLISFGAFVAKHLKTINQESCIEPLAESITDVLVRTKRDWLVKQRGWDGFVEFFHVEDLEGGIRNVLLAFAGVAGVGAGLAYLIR
DNA (cytosine-5)-methyltransferase 1, sequence (P26358 whole entry): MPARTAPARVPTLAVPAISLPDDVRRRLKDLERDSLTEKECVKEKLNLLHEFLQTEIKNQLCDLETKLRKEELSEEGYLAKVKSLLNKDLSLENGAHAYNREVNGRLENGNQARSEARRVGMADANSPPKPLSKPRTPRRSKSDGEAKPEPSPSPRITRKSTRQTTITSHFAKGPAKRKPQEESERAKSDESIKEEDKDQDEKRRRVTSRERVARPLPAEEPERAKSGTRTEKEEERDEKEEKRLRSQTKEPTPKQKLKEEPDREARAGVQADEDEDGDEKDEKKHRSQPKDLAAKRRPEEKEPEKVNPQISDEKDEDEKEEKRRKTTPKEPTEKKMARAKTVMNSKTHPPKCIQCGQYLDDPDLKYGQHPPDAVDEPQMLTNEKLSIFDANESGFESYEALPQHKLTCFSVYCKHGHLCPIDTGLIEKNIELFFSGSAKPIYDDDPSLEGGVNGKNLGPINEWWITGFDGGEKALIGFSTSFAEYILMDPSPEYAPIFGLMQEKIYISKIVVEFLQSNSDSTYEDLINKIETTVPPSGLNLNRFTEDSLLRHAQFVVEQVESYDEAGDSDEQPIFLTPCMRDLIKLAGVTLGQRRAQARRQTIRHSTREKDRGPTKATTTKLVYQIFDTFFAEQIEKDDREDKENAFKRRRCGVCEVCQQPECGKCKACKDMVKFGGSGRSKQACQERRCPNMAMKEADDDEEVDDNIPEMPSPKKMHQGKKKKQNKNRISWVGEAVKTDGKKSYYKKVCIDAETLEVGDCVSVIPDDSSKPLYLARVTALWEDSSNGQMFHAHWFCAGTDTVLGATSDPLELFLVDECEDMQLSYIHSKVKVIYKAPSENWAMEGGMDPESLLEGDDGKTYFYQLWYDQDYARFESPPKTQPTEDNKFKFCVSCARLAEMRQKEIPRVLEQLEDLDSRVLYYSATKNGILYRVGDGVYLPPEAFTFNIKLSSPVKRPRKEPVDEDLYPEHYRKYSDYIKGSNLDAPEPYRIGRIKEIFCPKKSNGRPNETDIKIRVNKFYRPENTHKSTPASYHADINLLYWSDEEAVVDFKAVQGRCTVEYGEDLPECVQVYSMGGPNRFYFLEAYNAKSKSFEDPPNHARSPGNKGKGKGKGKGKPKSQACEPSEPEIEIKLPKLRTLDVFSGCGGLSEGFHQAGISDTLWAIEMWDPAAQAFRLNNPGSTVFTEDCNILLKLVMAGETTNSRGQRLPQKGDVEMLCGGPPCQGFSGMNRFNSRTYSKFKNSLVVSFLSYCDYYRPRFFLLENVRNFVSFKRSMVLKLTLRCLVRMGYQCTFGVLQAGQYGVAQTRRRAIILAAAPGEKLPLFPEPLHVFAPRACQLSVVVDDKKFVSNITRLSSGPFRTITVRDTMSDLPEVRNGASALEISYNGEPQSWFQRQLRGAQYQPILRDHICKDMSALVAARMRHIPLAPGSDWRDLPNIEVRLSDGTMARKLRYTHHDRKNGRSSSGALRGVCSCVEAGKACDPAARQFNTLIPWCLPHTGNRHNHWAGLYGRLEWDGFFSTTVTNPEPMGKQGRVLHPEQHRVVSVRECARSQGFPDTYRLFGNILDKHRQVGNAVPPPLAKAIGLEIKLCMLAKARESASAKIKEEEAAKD

Regarding `CCc1nnc(NS(=O)(=O)c2ccc(NC(=S)NC(=O)/C=C/c3ccc(C(C)C)cc3)cc2)s1`, the IC50 (usually the concentration at which inhibition is half-maximal) was 6.16 µM (active) in test [1] and 15 µM (active) in test [2]. In addition, in test [3], the EC50 – broadly, the midpoint of the concentration-response curve – is > 50 µM (active).

As for `O=C(/C=C/c1ccco1)Nc1ccc(Oc2ccccc2)cc1`, the EC50 in the test with BJ [4] is 21.2 µM (active); with BJ [5] it was > 150 µM (inconclusive). Moreover, in test [6], the cytotoxic concentration (CC50) (as a rule, the concentration giving 50% cytotoxicity) was > 40 µM (active).

Take `CC1CC(=O)c2c(cc3c(-c4c(O)cc(O)c5c(O)c6c(cc45)OC(C)CC6=O)c(O)cc(O)c3c2O)O1` (stereo not drawn) [CEPHALOCHROMIN]: the figures for the IC50 (at Aminopeptidase N; in test [8]; in test [9]) were 64.9 µM (active), 1.49 µM (active) and > 100 µM (active), respectively. The EC50 in test [7] is 21.7 µM (active).

Consider `COc1ccc(S(=O)(=O)Nc2cc(SCC(=O)O)c(O)c3ccccc23)cc1`, for which the half-maximal activity concentration (AC50) (usually the concentration giving half of the maximal activity seen) in [10] is 104 µM (active).

As for `O=C1C(Nc2ccc(O)cc2)=C/C(=N/S(=O)(=O)c2cccs2)c2ccccc21`, the values for the concentration for a half-maximal effect (EC50) in [11] and in test [16] were > 100 µM (active) and 2.88 µM (inconclusive), respectively. For the same molecule, the IC50 in test [12] is 702 nM (active); in test [13] it was 1.65 µM (active); on Nonstructural protein 1, 17.9 µM (active); in [14] it was 428 nM (active); in test [15], 656 nM (active).

The values above are taken from ChEMBL document CHEMBL1201862, “PubChem BioAssay data set” (2004).
